The values that follow come from patent US9758526B2, “Quinoline-substituted compound” (TAIHO PHARMACEUTICAL CO., LTD., priority 2013, dated 2017).

Molecules are shown by their SMILES.

Assay [1] concerns the target T1, EGFR (d746-750) (Homo sapiens, UniProt P00533, DEL746-750).
T1 construct: purchased Carna Biosciences, Inc
The experiment in a line: EGFR (d746-750) kinase inhibitory activity. In kind it is biochemical. Particulars: ATP 5 μM, kinase reaction 90 minutes. The method, boiled down: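 Recombinant human EGFR (d746-750) with 250 nM biotinylated peptide, 5 μM ATP, 10 mM MgCl2 and 10 mM MnCl2, 2.5% DMSO, reacted 90 min at 25° C., stopped with EDTA. Phosphotyrosine detected by TR-FRET (Eu-PT66 antibody/APC-streptavidin, 665/620 nm ratio), with EDTA-pre-stopped background; IC50 (nM) from inhibition curve fit.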

The test system of assay [2] is NCI-H1975 expressing EGFR (T790M/L858R). As to the kind of experiment: Growth inhibition, NCI-H1975 expressing EGFR (T790M/L858R). Particulars: Homo sapiens, NCI-H1975, 72 h; cultured three days, CellTiter-Glo. In kind it is cell-based. The procedure, abridged: (§1)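 Cells seeded and grown 1 day, then exposed 3 days at 37 °C/5% CO2 to serial dilutions (final DMSO 0.2%). CellTiter-Glo luminescence was read before dosing and after 3 days; GI50 from inhibition (C−T)/(C−C0)×100 by curve fitting.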
For orientation: Cellular ATP, detected with luciferase, serves as a proxy for viable cell number.

The subject of assay [3] is HCC827 expressing EGFR (d746-750). As to the kind of experiment: Growth inhibition, HCC827 expressing EGFR (d746-750). In kind it is cell-based. The settings on record: Homo sapiens, HCC827, 72 h; cultured three days, CellTiter-Glo. The procedure, abridged: as §1
Assay [4] has as its target T2, EGFR (WT) (Homo sapiens, UniProt P00533).
T2 construct: expressing a cytoplasmic domain of human EGFR (WT) with its N-terminus fused to a FLAG tag; FLAG (N); made in house; host or cells: insect Sf9 cells, baculovirus expression system
As to the kind of experiment: EGFR (WT) kinase inhibitory activity. In kind it is biochemical. The settings on record: substrate peptide 500 nM. The procedure, abridged: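 The kinase was the cytoplasmic domain of human EGFR WT, N-terminally FLAG-tagged, expressed in Sf9 cells via baculovirus and purified on anti-FLAG agarose. Phosphotyrosine was detected by Eu-PT66/APC-SA TR-FRET (665/620 nm ratio), and IC50 was fitted from % inhibition.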

Assay [5] deals with A431 expressing EGFR (WT). As to the kind of experiment: Growth inhibition, A431 expressing EGFR (WT). In kind it is cell-based. The settings on record: Homo sapiens, A-431, 72 h; cultured three days, CellTiter-Glo. The method, boiled down:
as §1

Assay [6] concerns the target T3, EGFR (L858R) (Homo sapiens, UniProt P00533, L858R).
T3 construct: purchased Carna Biosciences, Inc
As to the kind of experiment: EGFR (L858R) kinase inhibitory activity. The settings on record: ATP 4 μM. In kind it is biochemical. The method, boiled down:
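Recombinant human EGFR (L858R) was incubated with 250 nM biotinylated peptide, 4 μM ATP, 10 mM MgCl2 and 10 mM MnCl2 in 2.5% DMSO for 120 min at 25 °C. The reaction was stopped with EDTA, and phosphotyrosine was detected by TR-FRET (Eu-PT66 antibody/APC-SA, 665/620 nm ratio). IC50 was obtained from the inhibition curves.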

Assay [7] has as its target T4, EGFR (d746-750/T790M) (Homo sapiens, UniProt P00533, DEL746-750/T790M).
T4 construct: purchased Carna Biosciences, Inc
As to the kind of experiment: EGFR (d746-750/T790M) kinase inhibitory activity. In kind it is biochemical. Particulars: ATP 1.5 μM. The method, boiled down:
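Recombinant human EGFR d746-750/T790M phosphorylating biotinylated peptide (250 nM) with 1.5 μM ATP, 10 mM MgCl2 and MnCl2, 2.5% DMSO, 120 min at 25 °C. EDTA-stopped; phosphotyrosine detected by Eu-PT66/APC-SA TR-FRET (665/620 nm ratio). IC50 from percent inhibition curves, EDTA-first samples as background.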

The target in assay [8] is T5, EGFR (T790M/L858R) (Homo sapiens, UniProt P00533, L858R/T790M).
T5 construct: purchased Carna Biosciences, Inc
T5 sequence (P00533 25-1210 T790M/L858R): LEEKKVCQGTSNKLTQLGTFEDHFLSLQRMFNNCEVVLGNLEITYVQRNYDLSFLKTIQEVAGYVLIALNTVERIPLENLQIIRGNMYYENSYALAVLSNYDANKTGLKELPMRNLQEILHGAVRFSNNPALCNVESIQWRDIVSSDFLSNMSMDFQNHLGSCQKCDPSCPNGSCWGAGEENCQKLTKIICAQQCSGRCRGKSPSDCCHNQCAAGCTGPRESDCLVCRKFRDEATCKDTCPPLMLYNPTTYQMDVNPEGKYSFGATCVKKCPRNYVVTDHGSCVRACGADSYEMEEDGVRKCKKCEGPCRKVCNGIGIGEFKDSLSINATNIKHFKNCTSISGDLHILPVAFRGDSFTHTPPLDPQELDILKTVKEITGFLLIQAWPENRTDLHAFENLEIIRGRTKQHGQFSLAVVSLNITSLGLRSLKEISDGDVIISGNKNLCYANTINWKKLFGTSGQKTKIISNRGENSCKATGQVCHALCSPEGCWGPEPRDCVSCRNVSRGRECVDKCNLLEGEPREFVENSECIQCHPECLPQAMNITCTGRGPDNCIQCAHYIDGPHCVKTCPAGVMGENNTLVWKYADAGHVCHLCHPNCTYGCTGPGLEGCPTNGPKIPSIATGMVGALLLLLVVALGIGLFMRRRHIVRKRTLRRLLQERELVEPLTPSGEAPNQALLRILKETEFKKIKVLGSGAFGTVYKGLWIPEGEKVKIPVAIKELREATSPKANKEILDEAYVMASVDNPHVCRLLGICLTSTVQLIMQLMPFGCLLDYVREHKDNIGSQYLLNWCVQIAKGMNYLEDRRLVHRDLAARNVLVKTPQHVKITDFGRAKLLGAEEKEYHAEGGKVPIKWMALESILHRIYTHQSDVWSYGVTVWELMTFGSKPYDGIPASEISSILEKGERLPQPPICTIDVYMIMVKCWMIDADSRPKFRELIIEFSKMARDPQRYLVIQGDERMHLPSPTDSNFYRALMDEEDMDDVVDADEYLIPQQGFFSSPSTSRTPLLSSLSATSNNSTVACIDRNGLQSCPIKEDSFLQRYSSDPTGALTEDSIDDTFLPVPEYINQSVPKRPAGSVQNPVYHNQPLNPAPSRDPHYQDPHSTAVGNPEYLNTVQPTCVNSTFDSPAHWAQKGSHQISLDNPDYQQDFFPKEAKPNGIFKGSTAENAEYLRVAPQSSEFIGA
The experiment in a line: EGFR (T790M/L858R) kinase inhibitory activity. In kind it is biochemical. The settings on record: ATP 1 μM, 25° C. for 120 minutes.

T1 sequence (P00533 with tags, fused parts or gaps DEL746-750 limits assumed): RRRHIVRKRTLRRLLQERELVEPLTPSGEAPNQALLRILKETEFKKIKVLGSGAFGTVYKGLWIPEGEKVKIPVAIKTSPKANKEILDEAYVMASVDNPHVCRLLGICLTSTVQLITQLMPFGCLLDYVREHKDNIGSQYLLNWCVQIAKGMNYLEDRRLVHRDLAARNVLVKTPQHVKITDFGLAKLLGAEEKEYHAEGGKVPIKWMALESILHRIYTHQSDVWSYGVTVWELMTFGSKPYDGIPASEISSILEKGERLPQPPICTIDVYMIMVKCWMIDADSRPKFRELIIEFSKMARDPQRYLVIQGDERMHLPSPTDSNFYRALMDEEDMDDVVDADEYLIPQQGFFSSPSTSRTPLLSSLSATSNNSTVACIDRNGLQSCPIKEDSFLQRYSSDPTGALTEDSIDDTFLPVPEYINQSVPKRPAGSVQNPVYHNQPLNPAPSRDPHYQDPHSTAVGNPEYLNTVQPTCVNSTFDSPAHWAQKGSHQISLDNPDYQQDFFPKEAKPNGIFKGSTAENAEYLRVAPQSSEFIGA
T3 sequence (P00533 25-1210 L858R): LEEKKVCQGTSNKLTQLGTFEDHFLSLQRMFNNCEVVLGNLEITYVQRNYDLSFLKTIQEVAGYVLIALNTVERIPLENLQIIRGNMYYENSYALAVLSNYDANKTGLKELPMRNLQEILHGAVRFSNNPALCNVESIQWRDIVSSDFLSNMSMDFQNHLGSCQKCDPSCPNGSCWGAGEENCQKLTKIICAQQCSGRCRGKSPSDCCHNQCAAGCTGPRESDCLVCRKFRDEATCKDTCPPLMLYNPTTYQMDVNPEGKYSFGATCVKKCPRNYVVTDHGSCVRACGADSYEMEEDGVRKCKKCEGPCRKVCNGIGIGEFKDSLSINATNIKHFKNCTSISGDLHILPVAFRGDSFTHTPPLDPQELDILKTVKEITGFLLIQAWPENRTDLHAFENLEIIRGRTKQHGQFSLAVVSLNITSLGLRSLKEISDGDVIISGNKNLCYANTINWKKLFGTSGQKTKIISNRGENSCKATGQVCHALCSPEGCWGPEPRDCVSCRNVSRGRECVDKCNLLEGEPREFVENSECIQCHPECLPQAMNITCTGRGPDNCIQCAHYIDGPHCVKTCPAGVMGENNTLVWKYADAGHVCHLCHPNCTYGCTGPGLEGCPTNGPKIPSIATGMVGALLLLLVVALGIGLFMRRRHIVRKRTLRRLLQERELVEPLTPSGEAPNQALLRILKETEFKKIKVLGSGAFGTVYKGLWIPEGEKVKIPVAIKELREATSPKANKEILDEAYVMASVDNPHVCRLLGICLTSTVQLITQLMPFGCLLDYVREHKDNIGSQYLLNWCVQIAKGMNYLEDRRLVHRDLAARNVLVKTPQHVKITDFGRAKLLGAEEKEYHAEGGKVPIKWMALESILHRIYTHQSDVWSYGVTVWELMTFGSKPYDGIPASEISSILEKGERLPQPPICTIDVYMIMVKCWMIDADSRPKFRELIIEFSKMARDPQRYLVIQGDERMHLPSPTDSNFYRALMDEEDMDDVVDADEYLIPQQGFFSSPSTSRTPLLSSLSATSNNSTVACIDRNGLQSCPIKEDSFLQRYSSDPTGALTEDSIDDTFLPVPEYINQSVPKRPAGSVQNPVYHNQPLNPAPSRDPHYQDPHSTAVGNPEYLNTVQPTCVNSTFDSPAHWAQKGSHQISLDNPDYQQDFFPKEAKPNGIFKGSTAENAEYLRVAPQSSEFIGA
T4 sequence (P00533 with tags, fused parts or gaps DEL746-750/T790M limits assumed): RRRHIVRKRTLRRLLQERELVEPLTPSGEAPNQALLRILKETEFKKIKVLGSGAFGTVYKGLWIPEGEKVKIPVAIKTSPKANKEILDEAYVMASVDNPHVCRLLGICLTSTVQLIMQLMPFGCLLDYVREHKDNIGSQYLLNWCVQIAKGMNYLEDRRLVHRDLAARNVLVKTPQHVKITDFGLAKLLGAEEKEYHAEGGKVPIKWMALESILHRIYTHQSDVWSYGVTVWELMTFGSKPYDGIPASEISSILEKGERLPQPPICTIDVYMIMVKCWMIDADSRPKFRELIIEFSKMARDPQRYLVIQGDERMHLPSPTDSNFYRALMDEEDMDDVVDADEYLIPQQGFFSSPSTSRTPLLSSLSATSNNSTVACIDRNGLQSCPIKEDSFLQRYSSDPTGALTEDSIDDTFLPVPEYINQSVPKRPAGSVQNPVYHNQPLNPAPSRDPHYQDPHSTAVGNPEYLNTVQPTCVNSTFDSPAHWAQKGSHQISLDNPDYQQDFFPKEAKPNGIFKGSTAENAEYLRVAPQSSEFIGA
T2 sequence (P00533 669-1210 limits assumed): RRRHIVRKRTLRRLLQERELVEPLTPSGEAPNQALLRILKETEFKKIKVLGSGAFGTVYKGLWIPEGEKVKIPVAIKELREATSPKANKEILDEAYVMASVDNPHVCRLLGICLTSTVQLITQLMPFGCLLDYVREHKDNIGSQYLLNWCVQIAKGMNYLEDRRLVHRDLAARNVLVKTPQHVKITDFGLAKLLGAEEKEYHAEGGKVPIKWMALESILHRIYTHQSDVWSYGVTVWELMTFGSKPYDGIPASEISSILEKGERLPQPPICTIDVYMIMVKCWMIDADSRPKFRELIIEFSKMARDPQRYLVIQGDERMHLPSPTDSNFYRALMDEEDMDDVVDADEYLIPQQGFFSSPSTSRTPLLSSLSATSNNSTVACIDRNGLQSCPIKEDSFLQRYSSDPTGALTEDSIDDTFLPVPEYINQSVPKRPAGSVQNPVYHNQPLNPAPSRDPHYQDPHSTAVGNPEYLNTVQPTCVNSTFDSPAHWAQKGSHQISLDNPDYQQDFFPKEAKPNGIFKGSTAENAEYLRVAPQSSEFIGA

As a reminder, the IC50 is the concentration that inhibits the measured activity by half. As usually defined, the GI50 is the concentration giving 50% growth inhibition. With `C=CC(=O)N[C@@H]1CCn2c(c(-c3cnc4ccccc4c3)c3c(N)ncnc32)C(=C)C1` [Example 18, (S)—N-(4-amino-6-methylene-5-(quinolin-3-yl)-7,8,9,10-tetrahydro-6H-pyrimido[5′,4′:4,5]pyrrolo[1,2-a]azepin-8-yl)acrylamide], the IC50 was determined as 4.5 nM in assay [1]; 68 nM in assay [4]; 12 nM in assay [6]; 1.3 nM in assay [7]; 4.7 nM in assay [8]. Besides, the figures for the GI50 in assay [2], in assay [3] and in assay [5] were 160 nM, 8.9 nM and 4000 nM, respectively.
In the case of `C=C1c2c(-c3cnc4ccccc4c3)c3c(N)ncnc3n2C[C@H]1NC(=O)/C=C/CN1CCCCC1` [Example 7, (S,E)-N-(4-amino-6-methylene-5-(quinolin-3-yl)-7,8-dihydro-6H-pyrimido[5,4-b]pyrrolizin-7-yl)-4-(piperidin-1-yl)but-2-enamide], the IC50 in assay [1] was 1.2 nM; in assay [4], 12 nM; in assay [6], 1.7 nM; in assay [7], 0.53 nM; in assay [8], 1 nM. Besides, the GI50 in assay [2] was found to be 150 nM; in assay [3], 5.6 nM; in assay [5], 2600 nM.
Consider `C=C1c2c(-c3cnc4ccccc4c3)c3c(N)ncnc3n2C[C@H]1NC(=O)/C=C\Cl` [Example 6, (S,Z)—N-(4-amino-6-methylene-5-(quinolin-3-yl)-7,8-dihydro-6H-pyrimido[5,4-b]pyrrolizin-7-yl)-3-chloroacrylamide], for which the IC50 in assay [1] is 0.24 nM; in assay [4] it was 4.9 nM; in assay [6] it was 0.45 nM; in assay [7], < 0.15 nM; in assay [8], 0.24 nM. The results for the GI50 in assay [2], in assay [3] and in assay [5] were 54 nM, 3.3 nM and 520 nM, respectively.
As for `C=C1c2c(-c3cnc4ccccc4c3)c3c(N)ncnc3n2C[C@H]1NC(=O)/C=C/CN(C)C` [Example 4, (S,E)-N-(4-amino-6-methylene-5-(quinolin-3-yl)-7,8-dihydro-6H-pyrimido[5,4-b]pyrrolizin-7-yl)-4-(dimethylamino)but-2-enamide], the IC50 was 0.45 nM in assay [1]; 6 nM in assay [4]; 0.63 nM in assay [6]; < 0.5 nM in assay [7]; 0.4 nM in assay [8]. For the same molecule, the GI50 in assay [2] stood at 140 nM; in assay [3] it was 5.5 nM; in assay [5], 2400 nM.
On to `C=CC(=O)N[C@@H]1Cn2c(c(-c3cnc4ccccc4c3)c3c(N)ncnc32)C1=C` [Example 1, (S)—N-(4-amino-6-methylene-5-(quinolin-3-yl)-7,8-dihydro-6H-pyrimido[5,4-b]pyrrolizin-7-yl)acrylamide], for which the IC50 in assay [1] was < 0.15 nM; in assay [4], 0.7 nM; in assay [6], < 0.5 nM; in assay [7] it was < 0.15 nM; in assay [8], < 0.5 nM. For the same molecule, the GI50 in assay [2] worked out at 9 nM; in assay [3], 1.9 nM; in assay [5] it was 370 nM.
In the case of `C=C1c2c(-c3cnc4ccccc4c3)c3c(N)ncnc3n2C[C@H]1NC(=O)C#CC` [Example 9, (S)—N-(4-amino-6-methylene-5-(quinolin-3-yl)-7,8-dihydro-6H-pyrimido[5,4-b]pyrrolizin-7-yl)but-2-ynamide], the IC50 is 2.3 nM in assay [1]; 52 nM in assay [4]; 5.9 nM in assay [6]; 0.45 nM in assay [7]; 2.1 nM in assay [8]. For the same molecule, the GI50 in assay [2] was found to be 770 nM; in assay [3], 7.5 nM; in assay [5], 4200 nM.
